Laboratory results from patent US20250215030A1, “STAT MODULATORS AND USES THEREOF” (Recludix Pharma, Inc., priority 2022, published 2025).

Legend:
[1] = molecular target: T1, Recombinant STAT6 protein (STAT6(W123-T658)) (Homo sapiens, UniProt P42226); experiment: STAT6 Fluorescence Polarization (FP) Assay; format: binding; conditions: STAT6(W123-T658) 250 nM, probe 5-FAM-ApYKPFQDLI-NH2 2 nM, 45-minute incubation
T1 construct: STAT6(W123-T658)
T1 sequence (P42226 123-658): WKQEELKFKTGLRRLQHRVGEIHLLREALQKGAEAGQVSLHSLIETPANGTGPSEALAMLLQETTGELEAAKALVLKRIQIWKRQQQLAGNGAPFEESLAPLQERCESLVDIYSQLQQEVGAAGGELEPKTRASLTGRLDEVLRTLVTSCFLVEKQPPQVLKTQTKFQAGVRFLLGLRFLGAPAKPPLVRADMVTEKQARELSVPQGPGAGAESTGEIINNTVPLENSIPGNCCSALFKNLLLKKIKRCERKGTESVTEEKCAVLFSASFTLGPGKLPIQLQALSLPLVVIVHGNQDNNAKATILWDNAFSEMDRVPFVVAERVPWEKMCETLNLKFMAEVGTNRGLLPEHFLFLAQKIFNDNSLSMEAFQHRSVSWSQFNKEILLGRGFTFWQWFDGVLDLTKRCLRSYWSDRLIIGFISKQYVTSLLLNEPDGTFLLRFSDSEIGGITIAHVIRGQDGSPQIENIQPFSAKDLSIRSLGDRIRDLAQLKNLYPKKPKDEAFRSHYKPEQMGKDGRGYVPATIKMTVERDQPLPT
Procedure, shortened: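 STAT6 (W123-T658) at 250 nM mixed with 2 nM 5-FAM-ApYKPFQDLI-NH2 probe in HEPES pH 7.4 buffer with DTT and Tween 20, 1% DMSO final. Polarization read after 45 min at room temperature; IC50 by nonlinear regression of mP versus log concentration, reported in bins A–D.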

[2] = molecular target: T2, Recombinant STAT3 protein (STAT3(G127-I722)) (Homo sapiens, UniProt P40763); experiment: STAT3 Fluorescence Polarization (FP) Assay; format: binding; conditions: STAT3(G127-I722) 25 nM, probe 5-FAM-GpYLPQTV-NH2 2 nM, 45-minute incubation
T2 construct: STAT3(G127-I722)
T2 sequence (P40763 127-722, species assumed): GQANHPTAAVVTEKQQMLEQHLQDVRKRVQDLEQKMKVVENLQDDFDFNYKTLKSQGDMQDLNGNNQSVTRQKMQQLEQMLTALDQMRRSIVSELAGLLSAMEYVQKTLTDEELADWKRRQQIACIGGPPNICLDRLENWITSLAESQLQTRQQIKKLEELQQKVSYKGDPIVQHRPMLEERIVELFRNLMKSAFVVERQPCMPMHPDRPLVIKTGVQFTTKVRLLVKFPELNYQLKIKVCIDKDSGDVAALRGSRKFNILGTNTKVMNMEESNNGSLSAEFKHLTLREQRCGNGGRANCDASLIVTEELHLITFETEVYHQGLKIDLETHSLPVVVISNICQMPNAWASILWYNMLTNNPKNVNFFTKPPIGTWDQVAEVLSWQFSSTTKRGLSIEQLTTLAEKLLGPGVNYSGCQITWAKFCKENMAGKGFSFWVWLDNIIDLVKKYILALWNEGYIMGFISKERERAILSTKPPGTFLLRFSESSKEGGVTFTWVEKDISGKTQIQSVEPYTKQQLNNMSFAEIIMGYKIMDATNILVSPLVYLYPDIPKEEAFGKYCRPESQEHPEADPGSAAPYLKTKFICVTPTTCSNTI
Procedure, shortened: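 STAT3(G127-I722) at 25 nM and 5-FAM-GpYLPQTV-NH2 probe at 2 nM in HEPES pH 7.4 buffer with NaCl, EDTA, Tween 20, DTT; 1% DMSO. FP read after 45 min at room temperature; IC50 by nonlinear regression of mP vs log concentration, binned A ≤100 nM to D >10 μM.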

Structure (SMILES) | IC50 [1] | IC50 [2]
N#CC1(c2ccccn2)CN(C(=O)[C@@H]2CC[C@@H]3C[C@@H]4C[C@@H]4C[C@H](NC(=O)c4cc5cc([C@@H](F)P(=O)(O)O)ccc5s4)C(=O)N32)C1 (single isomer, unassigned) [Example 356] | 3 to 30 µM | < 0.1 µM
O=C(N[C@H]1C[C@@H]2C[C@@H]2C[C@H]2CC[C@@H](C(=O)N3CC(c4cnccc4N4CCOCC4)C3)N2C1=O)c1cc2cc([C@@H](F)P(=O)(O)O)ccc2s1 (single isomer, unassigned) [Example 405] | 3 to 30 µM | < 0.1 µM
CC(C)(CNC(=O)[C@@H]1CC[C@@H]2C[C@@H]3C[C@@H]3C[C@H](NC(=O)c3cc4cc(C(F)(F)P(=O)(O)O)ccc4s3)C(=O)N21)c1cccnc1 [Compound 122, (difluoro(2-(((3S,6S,7aR,8aS,9aR)-3-((2-methyl-2-(pyridin-3-yl)propyl)carbamoyl)-5-oxodecahydro-1H-cyclopropa[d]pyrrolo[1,2-a]azocin-6-yl)carbamoyl)benzo[b]thiophen-5-yl)methyl)phosphonic acid] | 3 to 30 µM | 0.1 to 1 µM
Cc1ccc2c(c1)OCCN2C(=O)[C@@H]1CC[C@@H]2C[C@H]3C[C@H]3C[C@H](NC(=O)c3cc4cc(C(F)P(=O)(O)O)ccc4s3)C(=O)N21 (stereo partly drawn) [Example 383, (fluoro(2-(((3S,6S,7aS,8aR,9aR)-3-(7-methyl-3,4-dihydro-2H-benzo[b][1,4]oxazine-4-carbonyl)-5-oxodecahydro-1H-cyclopropa[d]pyrrolo[1,2-a]azocin-6-yl)carbamoyl)benzo[b]thiophen-5-yl)methyl)phosphonic acid] | 0.3 to 3 µM | 1 to 10 µM
O=C(N[C@H]1C[C@H]2C[C@H]2C[C@H]2CC[C@@H](C(=O)N3CC(c4cnccc4N4CCOCC4)C3)N2C1=O)c1cc2cc([C@@H](F)P(=O)(O)O)ccc2s1 (single isomer, unassigned) [Example 391] | > 30 µM | < 0.1 µM
CC(=O)N1C[C@H](NC(=O)[C@@H]2CC[C@@H]3C[C@]4(C)C[C@@H]4C[C@H](NC(=O)c4cc5cc(CP(=O)(O)O)ccc5s4)C(=O)N32)[C@@H](F)C1 [Example 273, ((2-(((3S,6S,7aR,8aS,9aR)-3-(((3S,4S)-1-acetyl-4-fluoropyrrolidin-3-yl)carbamoyl)-8a-methyl-5-oxodecahydro-1H-cyclopropa[d]pyrrolo[1,2-a]azocin-6-yl)carbamoyl)benzo[b]thiophen-5-yl)methyl)phosphonic acid] | 3 to 30 µM | 1 to 10 µM
Cc1noc(C2CN(C(=O)[C@@H]3CC[C@@H]4C[C@H]5C[C@H]5C[C@H](NC(=O)c5cc6cc(C(F)P(=O)(O)O)ccc6s5)C(=O)N43)C2)n1 (stereo partly drawn) [Example 326, (fluoro(2-(((3S,6S,7aS,8aR,9aR)-3-(3-(3-methyl-1,2,4-oxadiazol-5-yl)azetidine-1-carbonyl)-5-oxodecahydro-1H-cyclopropa[d]pyrrolo[1,2-a]azocin-6-yl)carbamoyl)benzo[b]thiophen-5-yl)methyl)phosphonic acid] | 3 to 30 µM | 0.1 to 1 µM
O=C(N[C@H]1C[C@@H]2C[C@@H]2C[C@H]2CC[C@@H](C(=O)N3CC(Cc4cncnc4)C3)N2C1=O)c1cc2cc(CP(=O)(O)O)ccc2s1 [Example 364, ((2-(((3S,6S,7aS,8aR,9aR)-5-oxo-3-(3-(pyrimidin-5-ylmethyl)azetidine-1-carbonyl)decahydro-1H-cyclopropa[d]pyrrolo[1,2-a]azocin-6-yl)carbamoyl)benzo[b]thiophen-5-yl)methyl)phosphonic acid] | > 30 µM | 1 to 10 µM
O=C(N[C@H]1C[C@@H]2C[C@@H]2C[C@H]2CC[C@@H](C(=O)N3CC(C(=O)N4CC[C@@H](O)C4)C3)N2C1=O)c1cc2cc(C(F)(F)P(=O)(O)O)ccc2s1 [Compound 109, (difluoro(2-(((3S,6S,7aS,8aR,9aR)-3-(3-((R)-3-hydroxypyrrolidine-1-carbonyl)azetidine-1-carbonyl)-5-oxodecahydro-1H-cyclopropa[d]pyrrolo[1,2-a]azocin-6-yl)carbamoyl)benzo[b]thiophen-5-yl)methyl)phosphonic acid] | 3 to 30 µM | < 0.1 µM
Cc1cnc(N2C[C@H](NC(=O)[C@@H]3CC[C@@H]4C[C@H]5C[C@H]5C[C@H](NC(=O)c5cc6cc(C(F)P(=O)(O)O)ccc6s5)C(=O)N43)[C@@H](F)C2)n1C (stereo partly drawn) [Example 376, ((2-(((3S,6S,7aS,8aR,9aR)-3-(((3S,4S)-1-(1,5-dimethyl-1H-imidazol-2-yl)-4-fluoropyrrolidin-3-yl)carbamoyl)-5-oxodecahydro-1H-cyclopropa[d]pyrrolo[1,2-a]azocin-6-yl)carbamoyl)benzo[b]thiophen-5-yl)fluoromethyl)phosphonic acid] | 3 to 30 µM | < 0.1 µM
O=C(N[C@H]1C[C@H]2C[C@H]2C[C@H]2CC[C@@H](C(=O)N3CC(c4cnccc4F)C3)N2C1=O)c1cc2cc(CP(=O)(O)O)ccc2s1 [Example 250, ((2-(((3S,6S,7aR,8aS,9aR)-3-(3-(4-fluoropyridin-3-yl)azetidine-1-carbonyl)-5-oxodecahydro-1H-cyclopropa[d]pyrrolo[1,2-a]azocin-6-yl)carbamoyl)benzo[b]thiophen-5-yl)methyl)phosphonic acid] | 3 to 30 µM | < 0.1 µM

Results, then the compound that gave them:

IC50 [1] | IC50 [2] | Structure (SMILES)
3 to 30 µM | < 0.1 µM | CO[C@@H]1CCN(c2ccncc2C2CN(C(=O)[C@@H]3CC[C@@H]4C[C@H]5C[C@H]5C[C@H](NC(=O)c5cc6cc([C@@H](F)P(=O)(O)O)ccc6s5)C(=O)N43)C2)C1 [Example 422, ((S)-fluoro(2-(((3S,6S,7aS,8aR,9aR)-3-(3-(4-((R)-3-methoxypyrrolidin-1-yl)pyridin-3-yl)azetidine-1-carbonyl)-5-oxodecahydro-1H-cyclopropa[d]pyrrolo[1,2-a]azocin-6-yl)carbamoyl)benzo[b]thiophen-5-yl)methyl)phosphonic acid]
3 to 30 µM | 1 to 10 µM | CC(=O)N1C[C@H](NC(=O)[C@@H]2CC[C@@H]3C[C@@H]4C[C@@H]4C[C@H](NC(=O)c4cc5cc(CP(=O)(O)O)ccc5s4)C(=O)N32)[C@@H](F)C1 [Example 244, ((2-(((3S,6S,7aR,8aS,9aR)-3-(((3S,4S)-1-acetyl-4-fluoropyrrolidin-3-yl)carbamoyl)-5-oxodecahydro-1H-cyclopropa[d]pyrrolo[1,2-a]azocin-6-yl)carbamoyl)benzo[b]thiophen-5-yl)methyl)phosphonic acid]
0.3 to 3 µM | < 0.1 µM | CC(=O)N1C[C@H](NC(=O)[C@@H]2CC[C@@H]3C[C@@H]4C[C@@H]4C[C@H](NC(=O)c4cc5cc(C(F)(F)P(=O)(O)O)ccc5s4)C(=O)N32)[C@@H](F)C1 [Compound 126, ((2-(((3S,6S,7aR,8aS,9aR)-3-(((3S,4S)-1-acetyl-4-fluoropyrrolidin-3-yl)carbamoyl)-5-oxodecahydro-1H-cyclopropa[d]pyrrolo[1,2-a]azocin-6-yl)carbamoyl)benzo[b]thiophen-5-yl)difluoromethyl)phosphonic acid]
3 to 30 µM | < 0.1 µM | CN(C)c1ccncc1C1CN(C(=O)[C@@H]2CC[C@@H]3C[C@H]4C[C@H]4C[C@H](NC(=O)c4cc5cc([C@H](F)P(=O)(O)O)ccc5s4)C(=O)N32)C1 (single isomer, unassigned) [Example 407]
3 to 30 µM | < 0.1 µM | O=C(N[C@H]1C[C@H]2C[C@H]2C[C@H]2CC[C@@H](C(=O)N3CC(c4[nH]nc5c4CCC5)C3)N2C1=O)c1cc2cc(C(F)(F)P(=O)(O)O)ccc2s1 [Compound 77, (difluoro(2-(((3S,6S,7aR,8aS,9aR)-5-oxo-3-(3-(2,4,5,6-tetrahydrocyclopenta[c]pyrazol-3-yl)azetidine-1-carbonyl)decahydro-1H-cyclopropa[d]pyrrolo[1,2-a]azocin-6-yl)carbamoyl)benzo[b]thiophen-5-yl)methyl)phosphonic acid]
0.3 to 3 µM | < 0.1 µM | CC(=O)N1CC2(C1)CN(C(=O)[C@@H]1CC[C@@H]3C[C@H]4C[C@H]4C[C@H](NC(=O)c4cc5cc(C(F)(F)P(=O)(O)O)ccc5s4)C(=O)N31)C2 [Compound 40, ((2-(((3S,6S,7aS,8aR,9aR)-3-(6-acetyl-2,6-diazaspiro[3.3]heptane-2-carbonyl)-5-oxodecahydro-1H-cyclopropa[d]pyrrolo[1,2-a]azocin-6-yl)carbamoyl)benzo[b]thiophen-5-yl)difluoromethyl)phosphonic acid]
